# Tested on: breast cancer
# Test: Treatment of Patient A (Stage II breast cancer)
# Assay type: in vivo, human
# Details: tamoxifen alone, 20 mg a day, year 3 of 5-year treatment
# Procedure: Patient A has Stage II breast cancer. Patient A is in year 3 of a 5-year treatment with tamoxifen (tamoxifen prescribed at 20 mg a day for 5 years) but no regression in patient's breast cancer is apparent. Additional treatment is desired.
# Cholesterol deprivation therapy is prescribed for Patient A. Patient A prefers a vegan diet, so Patient A's diet includes no meat or animal products, no saturated fats, and monounsaturated and polyunsaturated fats in moderation. Vegetable proteins, fruits, vegetables, and grains are primary food sources. A multivitamin with vitamin D and calcium is prescribed. […] CDT is prescribed for 8 months.
# Patient A is treated with anti-CD cancer cell antibodies. Initial antibody loading dose of 1.3 g antibody preparation is administered as a two hour IV infusion, followed by weekly doses of about 0.6 g administered as a 30 minute infusion of the antibody preparation. Antibody and CDT treatments continue for 6 months.
# As a result of combination treatment with CDT diet, statins, anti-CD cancer cell antibodies, and tamoxifen, Patient A's breast cancer regresses.
smiles,measurement,value
CC/C(=C(\c1ccccc1)c1ccc(OCCN(C)C)cc1)c1ccccc1 [tamoxifen],regression of breast cancer,no regression

# — patent US20160030562A1, “METHODS TO ENHANCE CANCER TREATMENT” (INTERNATIONAL BUSINESS MACHINES CORPORATION, priority 2011, published 2016)
